The values below come from ChEMBL document CHEMBL3407385, “Promiscuous 2-aminothiazoles (PrATs): a frequent hitting scaffold” (J Med Chem, 2015).

Active and inactive are the calls of the source. No cut-off for these calls is given here.

A short description of experiment [1]: Binding affinity to oxidoreductase 1 (unknown origin) at 1 mM by HSQC-NMR analysis.
Experiment [2] addresses T1, SPRY domain-containing SOCS box protein 2 (Homo sapiens) (UniProt Q99619).
T1 sequence (whole entry): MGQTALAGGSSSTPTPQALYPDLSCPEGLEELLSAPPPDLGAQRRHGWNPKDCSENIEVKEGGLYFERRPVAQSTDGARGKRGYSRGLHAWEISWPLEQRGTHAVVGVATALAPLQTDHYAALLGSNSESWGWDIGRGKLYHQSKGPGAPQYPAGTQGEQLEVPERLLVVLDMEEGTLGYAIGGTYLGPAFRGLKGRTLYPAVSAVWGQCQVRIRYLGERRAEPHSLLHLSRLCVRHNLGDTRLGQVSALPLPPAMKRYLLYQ
Nature of the experiment: Binding affinity to SPSB2 (unknown origin) at 3mM by 19F NMR method.

Experiment [3] can be described thus: Binding affinity to oxidoreductase 1 (unknown origin) by STD-NMR analysis.
Experiment [4] in a line: Binding affinity to oxidoreductase 1 (unknown origin) at 1.5 mM by HSQC-NMR analysis.

Take `COc1ccc(-c2nc(N)sc2C)cc1`: the result in experiment [1] was Active.
Take `Cc1sc(N)nc1-c1ccccc1`: the result in experiment [1] was Active.
As to `Nc1nc(-c2ccccc2)cs1`, the result in experiment [1], in experiment [2] and in experiment [3] was Active.
With `Nc1nc2cc3c(cc2s1)OCCO3`, in experiment [4], the result was Active.
